Laboratory results published in patent US4130647A, “Methods for treating congestive heart failure and ischemic heart disease” (priority 1977, dated 1978).
Values joined by “and” are separate entries in the source; they are usually repeats but may differ in a detail not shown here. Identical values can stand only once. Like-named read-outs stand apart in the source and are kept apart here.

Legend:
[1] = test system: forearm blood flow, vascular resistance and venous tone of patients with heart failure; conditions: for forearm blood flow: control 1.29 ± 0.14; for forearm vascular resistance: control 88.9 ± 13.8
[2] = test system: enzyme phosphodiesterase in vascular smooth muscle; conditions: cited from earlier work
[3] = test system: patients; design: species or system human; conditions: in vivo
Excerpt: A finding of major importance which emerged from this investigation concerns the relative effects of prazosin on both venous and arteriolar smooth muscle. Prazosin is used clinically as an antihypertensive agent and the arterial dilating actions have been confirmed previously in experimental studies [Cohen, et al., J. Clin. Pharmacol., 10, 408 (1970)]. The important finding delineated herein that prazosin also effects substantial venodilation was of considerable physiologic significance since this unique action on systemic veins allows salutory extension of oral prazosin to the ambulatory therapy of chronic congestive heart failure. In this regard, in patients with normal left ventricular filling pressures, the prazosin-induced venous pooling and decline in cardiac return may lower ventricular preload to such a degree that the point of operation of the ventricle on the Frank-Starling relation is shifted substantially downward and to the left on its ascending limb with resultant decline in cardiac output despite lowered impedance. Furthermore, in the case of prazosin, the attenuation of reflex tachycardia by the agent in this circumstance of lowered stroke volume because of low preload, inhibits the principal regulatory mechanism which would otherwise compensate for the lowered stroke volume. […]

[4] = test system: contractile state of the heart; conditions: experimental studies; cited from earlier work
[5] = test system: patients who had severe ischemic cardiomyopathy and heart failure; experiment: Hemodynamic effects of oral prazosin in congestive heart failure (Example 1); type: in vivo, human; conditions: for pressure.time per minute (index of myocardial oxygen demand): control 3293 ± 191
Excerpt: The study comprised ten patients, six males and four females, mean age 51 years (range 46 to 62 years) who had severe ischemic cardiomyopathy and heart failure documented in each by cardiac catheterization and coronary arteriography. The duration of heart failure symptoms ranged from one to six years. All patients were receiving digoxin and diuretics, while seven were also taking long-acting nitrate preparations for the chronic unloading effects of these agents, Williams, et al., Am. J. Cardiol., 39, 84 (1977) and Amsterdam, et al., Circulation, 52 [Suppl. 2] 150 (1975).
Left ventriculography confirmed extensive abnormalities of segmental contraction in the appropriate area in each patient and the mean ejection fraction for this group of patients was 0.18 ± 0.03 (SEM). […] The remaining two patients were clinically functional class IV with resting dyspnea and were not able to undergo exercise evaluation.
Hemodynamics: All patients were studied in the post-absorptive state; and informed consent was obtained in each. All cardiac medications including digoxin, diuretics and long-acting nitrates were withheld for at least 24 hours prior to study.
Systemic arterial pressure was measured directly through an intra-arterial Teflon catheter placed into a brachial artery. Right atrial (RA), pulmonary artery (PA) and pulmonary artery wedge (PAW) pressures, and cardiac output (CO) by thermodilution were recorded with the Swan-Ganz catheter. Cardiac outputs were performed in triplicate (less than 10 percent variation) utilizing iced-water and computations were accomplished by a bed-side computer (Santa Barbara, Technology, Inc., Santa Barbara, Calif.).
Derived hemodynamic variables were calculated as follows: stroke work index (SWI) in gm-m/M^2 = SI × (AP-LVFP) × 0.0136 here SI = stroke index, AP = mean systemic arterial pressure and LVFP = left ventricular filling pressure either as the mean PAW or PA diastolic pressure, the particular method utilized for this variable remaining constant throughout the study for each patient; total systemic vascular resistance (TSVR) = 80 [(AP-RA)/CO] where 80 converts mm. Hg. to dynes sec. cm.^-5 and RA = mean RA pressure; pressure.time per minute (PTM) in mm. Hg. sec. per minute = AP × ET × HR where ET = left ventricular ejection time and HR = heart rate.

[6] = test system: patients; conditions: cited from earlier work
[7] = one hour post prazosin vs. control
[8] = 1 hour post prazosin, individual patients
[9] = 60 minutes post prazosin vs. control
[10] = 3 hours post prazosin, group mean
[11] = 3 hours post prazosin, individual patients
[12] = 6 hours post prazosin, group mean
[13] = 6 hours post prazosin, individual patients

COc1cc2nc(N3CCN(C(=O)c4ccco4)CC3)nc(N)c2cc1OC [prazosin]
forearm vascular resistance, patients responding ([1]; 30 minutes post prazosin): lowered by prazosin in all patients
ratio of percent reduction of forearm vascular resistance to percent decline in forearm venous tone ([1]; 30 minutes post prazosin): 0.49
change in forearm venous tone ([1]; 30 minutes post prazosin vs. control): -69%
forearm blood flow ([1]; 30 minutes post prazosin): 1.71 ± 0.25 ml./100 gm./minute
venous tone in the forearm ([1]; 30 minutes post prazosin, control 58.9 ± 13.8): 18.5 ± 3.9 ml./mm. Hg.
forearm vascular resistance ([1]; 30 minutes post prazosin): 58.4 ± 6.1 mm. Hg./ml./100 gm./min.
ratio of percent reduction of forearm vascular resistance to percent decline in forearm venous tone ([1]; 1 hour post prazosin): 0.67
forearm blood flow ([1]; 60 minutes post prazosin): 1.95 ± 0.33 ml./100 gm./minute
persistence of increase in forearm blood flow ([1]; 6 hours): remained increased for the entire 6 hours
change in forearm vascular resistance [1, 7]: -47%
forearm vascular resistance ([1]; one hour post prazosin): 47.9 ± 5.8 mm. Hg./ml./100 gm./min.
persistence of decline in forearm vascular resistance ([1]; six hours): persisted for the six hour study period
persistence of lowering of forearm venous tone ([1]; six hours): remained lowered at this level for the entire six hour observation period
cyclic GMP ([2]; myocardium): increased levels of cyclic GMP
cyclic AMP ([2]; vascular smooth muscle): accumulation of cyclic AMP
inhibition of phosphodiesterase ([2]; vascular smooth muscle): inhibition of the enzyme phosphodiesterase
syncope or other untoward effects [3]: no syncope or other untoward effects occurred
effects on the contractile state of the heart [4]: neither direct nor sympathetically mediated indirect effects
cardiac index, patients responding ([5]; 30 minutes post prazosin): increased in each patient
left ventricular filling pressure, patients responding ([5]; 30 minutes post prazosin): lowered in all 10 patients
Cardiac Index ([5]; 30 minutes post prazosin, group mean, control 2.07 ± 0.12): 2.62 ± 0.11 L/min./M^2
total systemic vascular resistance ([5]; 30 minutes post prazosin, group mean, control 2074 ± 183): 1448 ± 139 dynes sec. cm.^-5
stroke work index, direction of change ([5]; 30 minutes post prazosin, p<0.01): increased
Mean Systemic Arterial Pressure ([5]; 30 minutes post prazosin, control 95.3 ± 5.3): 86.1 ± 5.8 mm. Hg.
pressure.time per minute (index of myocardial oxygen demand) ([5]; 30 minutes post prazosin): 2992 ± 208 mm. Hg. sec. per minute
CI (cardiac index), mean ([5]; 1 hour (60 minutes) post prazosin, group mean, control 2.07): 2.94 ± 0.10 L/min./M^2 and 2.9 L/min./M^2
SWI (stroke work index), mean ([5]; 1 hour (60 minutes) post prazosin, group mean, control 23.3): 31.4 ± 5.1 gm.-m/M^2 and 31.4 gm.-m/M^2
LVFP (left ventricular filling pressure), mean ([5]; 1 hour (60 minutes) post prazosin, group mean, control 30.2): 17.7 ± 1.4 mm. Hg. and 17.7 mm. Hg.
HR (heart rate), mean ([5]; 1 hour post prazosin, group mean, control 84): 84 beats per minute
AP (mean systemic arterial pressure), mean ([5]; 1 hour post prazosin, group mean, control 95.3): 77.8 mm. Hg.
TSVR (total systemic vascular resistance), mean ([5]; 1 hour post prazosin, group mean, control 2074): 1156 ± 83 dynes sec. cm.^-5 and 1156 dynes sec. cm.^-5
AP (mean systemic arterial pressure) [5, 8]: 86 mm. Hg. and 62 mm. Hg. and 92 mm. Hg. and 69 mm. Hg. and 91 mm. Hg. and 77 mm. Hg. and 67 mm. Hg. and 64 mm. Hg. and 60 mm. Hg. and 110 mm. Hg.
CI (cardiac index) [5, 8]: 2.9 L/min./M^2 and 2.8 L/min./M^2 and 3.2 L/min./M^2 and 2.6 L/min./M^2 and 3.1 L/min./M^2 and 2.5 L/min./M^2 and 3.5 L/min./M^2
LVFP (left ventricular filling pressure) [5, 8]: 16 mm. Hg. and 19 mm. Hg. and 25 mm. Hg. and 11 mm. Hg. and 12 mm. Hg. and 18 mm. Hg. and 24 mm. Hg. and 21 mm. Hg. and 20 mm. Hg. and 13 mm. Hg.
SWI (stroke work index) [5, 8]: 41 gm.-m/M^2 and 23 gm.-m/M^2 and 34 gm.-m/M^2 and 24 gm.-m/M^2 and 44 gm.-m/M^2 and 29 gm.-m/M^2 and 17 gm.-m/M^2 and 15 gm.-m/M^2 and 20 gm.-m/M^2 and 68 gm.-m/M^2
TSVR (total systemic vascular resistance) [5, 8]: 1445 dynes sec. cm.^-5 and 1038 dynes sec. cm.^-5 and 1067 dynes sec. cm.^-5 and 920 dynes sec. cm.^-5 and 1549 dynes sec. cm.^-5 and 1011 dynes sec. cm.^-5 and 1477 dynes sec. cm.^-5 and 908 dynes sec. cm.^-5 and 836 dynes sec. cm.^-5 and 1304 dynes sec. cm.^-5
HR (heart rate) ([5]; 1 hour post prazosin, oral 2 to 5 mg (one patient 7 mg), individual patients 1-10): 66 beats per minute and 72 beats per minute and 90 beats per minute and 105 beats per minute and 62 beats per minute and 87 beats per minute and 86 beats per minute and 102 beats per minute
change in cardiac index (maximal increase) [5, 9]: +42%
change in left ventricular filling pressure [5, 9]: -41%
change in stroke work index (peak) [5, 9]: +35%
AP (mean systemic arterial pressure), mean [5, 10]: 78.6 mm. Hg.
CI (cardiac index), mean [5, 10]: 2.7 L/min./M^2
HR (heart rate), mean [5, 10]: 81 beats per minute
LVFP (left ventricular filling pressure), mean [5, 10]: 17.9 mm. Hg.
SWI (stroke work index), mean [5, 10]: 28.7 gm.-m/M^2
TSVR (total systemic vascular resistance), mean [5, 10]: 1303 dynes sec. cm.^-5
AP (mean systemic arterial pressure) [5, 11]: 79 mm. Hg. and 67 mm. Hg. and 90 mm. Hg. and 72 mm. Hg. and 80 mm. Hg. and 77 mm. Hg. and 68 mm. Hg. and 69 mm. Hg. and 104 mm. Hg.
CI (cardiac index) [5, 11]: 3.1 L/min./M^2 and 2.4 L/min./M^2 and 2.0 L/min./M^2 and 2.9 L/min./M^2 and 2.3 L/min./M^2 and 2.8 L/min./M^2 and 3.3 L/min./M^2 and 2.5 L/min./M^2
HR (heart rate) [5, 11]: 66 beats per minute and 70 beats per minute and 85 beats per minute and 100 beats per minute and 61 beats per minute and 72 beats per minute and 112 beats per minute and 80 beats per minute and 99 beats per minute
LVFP (left ventricular filling pressure) [5, 11]: 21 mm. Hg. and 23 mm. Hg. and 14 mm. Hg. and 11 mm. Hg. and 20 mm. Hg. and 22 mm. Hg. and 25 mm. Hg. and 18 mm. Hg. and 16 mm. Hg.
SWI (stroke work index) [5, 11]: 45 gm.-m/M^2 and 25 gm.-m/M^2 and 32 gm.-m/M^2 and 22 gm.-m/M^2 and 36 gm.-m/M^2 and 26 gm.-m/M^2 and 16 gm.-m/M^2 and 17 gm.-m/M^2 and 24 gm.-m/M^2 and 44 gm.-m/M^2
TSVR (total systemic vascular resistance) [5, 11]: 1222 dynes sec. cm.^-5 and 1307 dynes sec. cm.^-5 and 1125 dynes sec. cm.^-5 and 1069 dynes sec. cm.^-5 and 1484 dynes sec. cm.^-5 and 1294 dynes sec. cm.^-5 and 1850 dynes sec. cm.^-5 and 1135 dynes sec. cm.^-5 and 840 dynes sec. cm.^-5 and 1708 dynes sec. cm.^-5
persistence of reduction of pressure.time per minute ([5]; 6 hours): remained diminished for 6 hours
persistence of reduction of total systemic vascular resistance ([5]; 6 hours): significant (p<0.001) reduction in TSVR persisted for the entire 6 hour observation
AP (mean systemic arterial pressure), mean [5, 12]: 86.0 mm. Hg.
CI (cardiac index), mean [5, 12]: 2.4 L/min./M^2
HR (heart rate), mean [5, 12]: 75 beats per minute
LVFP (left ventricular filling pressure), mean [5, 12]: 19.7 mm. Hg.
SWI (stroke work index), mean [5, 12]: 29.9 gm.-m/M^2
TSVR (total systemic vascular resistance), mean [5, 12]: 1639 dynes sec. cm.^-5
AP (mean systemic arterial pressure) [5, 13]: 75 mm. Hg. and 80 mm. Hg. and 100 mm. Hg. and 102 mm. Hg. and 85 mm. Hg. and 74 mm. Hg.
CI (cardiac index) [5, 13]: 3.1 L/min./M^2 and 2.4 L/min./M^2 and 2.6 L/min./M^2 and 2.2 L/min./M^2 and 2.1 L/min./M^2
HR (heart rate) [5, 13]: 70 beats per minute and 72 beats per minute and 90 beats per minute and 56 beats per minute and 78 beats per minute and 86 beats per minute
LVFP (left ventricular filling pressure) [5, 13]: 13 mm. Hg. and 20 mm. Hg. and 23 mm. Hg. and 15 mm. Hg. and 18 mm. Hg. and 29 mm. Hg.
SWI (stroke work index) [5, 13]: 38 gm.-m/M^2 and 27 gm.-m/M^2 and 30 gm.-m/M^2 and 45 gm.-m/M^2 and 25 gm.-m/M^2 and 15 gm.-m/M^2
TSVR (total systemic vascular resistance; head TSVB) [5, 13]: 1158 dynes sec. cm.^-5 and 1550 dynes sec. cm.^-5 and 1455 dynes sec. cm.^-5 and 2066 dynes sec. cm.^-5 and 1638 dynes sec. cm.^-5 and 1973 dynes sec. cm.^-5
persistence of reduction of left ventricular filling pressure ([5]; entire study period): remained significantly (p<0.001) reduced throughout the entire study period
total systemic vascular resistance, patients responding ([5]; following prazosin): reduced in each patient
change in heart rate ([5]; following prazosin, control 84 ± 5.1 beats per minute, p>0.05): not statistically different
change in pressure.time per minute [5, 7]: -15%
change in total systemic vascular resistance [5, 7]: -44
pressure.time per minute (index of myocardial oxygen demand) ([5]; one hour post prazosin): 2793 ± 188 mm. Hg. sec. per minute
response in systemic blood pressure or left ventricular filling pressure ([5]; one patient, 2 hours following first dose): no alteration in systemic blood pressure or left ventricular filling pressure
persistence of increase in cardiac index ([5]; six hours vs. control): remaining significantly (p<0.01) elevated at six hours
persistence of lowering of mean systemic arterial pressure ([5]; throughout the observation period): remained significantly (p<0.001 or p<0.01) lowered throughout the observation period
change in mean systemic arterial pressure ([5]; two hours post prazosin vs. control): -20%
mean systemic arterial pressure, maximal hypotensive effect ([5]; two hours post prazosin, control 95.3 ± 5.3): 76.2 ± 3.8 mm. Hg.
tolerability in long-term administration ([6]; hypertensive patients): relatively well tolerated
excessive hypotension ([6]; in vivo): reported to occasionally occur
serologic side effects resembling hydralazine-induced lupus erythematosus ([6]; in vivo): no reports of serologic side effects
febrile polyarthritis ([6]; patient receiving prazosin for hypertension): reported in a single patient
